Assay results from the NIST ThermoML archive (doi:10.1021/je060190e).

Settings: 101.33 kPa, Liquid

CCCCn1cc[n+](C)c1.COS(=O)(=O)[O-] [1-butyl-3-methylimidazolium methyl sulfate]
Settings	mass density [kg/m3]
290.95 K	1214.9
292.95 K	1213.5
294.95 K	1212.1
297 K	1210.7
299 K	1209.4
301 K	1208
303 K	1206.7
305 K	1205.3
307.05 K	1204
